Data reported in patent publication US6756366B1, “Orally active androgens” (Akzo Nobel N.V., priority 1999, dated 2004).

Experiments:
[1] = test system: serum LH; assay: LH suppression assay in mature male castrated rat model; format: in vivo; conditions: mature male castrated rats, po daily for 4 days in arachis oil suspension, serum LH 3 hours after last oral dose; for ED50: Rattus norvegicus, read-out: ED50 (po) required to suppress serum LH for 50% (±10%)
Procedure: The in vivo potency of several androgens of the invention was determined in a mature male castrated rat model, in comparison with MENT.
In this model serum LH is high (50× fold higher than with intact rats, due to the absence of the negative feedback of testicular testosterone). These rats are po treated for 4 days daily with a given compound of the invention in a suspension fluid of arachisoil. Before dosing and 3 hours after the last oral dose blood is collected via tail vene and in the serum LH is determined. Potency of the androgens (ED50) are expressed as the amount (mg/kg) of androgen which suppresses serum LH for 50% (±10%).
The rat LH Time-Resolved Immuno Fluorometric Assay (TR-IFMA) has been developed in house using home made reagents, a monoclonal catching antibody directed against the β-subunit of human chorion gonadotrophin (hCG, which cross react with rat β-subunit) and a biotin labelled detecting antibody (rabbit polyclonal antibody directed against the alfa-subunit of recombinant rat LH). Recombinant rat LH was prepared according to the methods described by Hakola et al (1997). In this two-site-IFMA, only intact rat LH is determined by a final incubation with streptavidin-europium. The detection in the IFMA is based on fluorescence of the lanthanide europium during a relative long exitation period. The concentration range of rat LH standard is 0.001-10 ng/ml, for optimal accuracy measurements of serum LH serum samples were diluted 8-times with assay buffer [Hakola, K., Boogaart, P. V., Mulders, J., de Leeuw, R., Schoonen, W., Heyst, J. V., Swolfs, A., Casteren, J. V., Huhtaniemi, I., and Kloosterboer, H. J., Recombinant rat luteinizing hormone; production by Chinese hamster ovary cells, purification and functional characterization, Molecular & Cellular Endocrinology 128, 47 (1997)].

[2] = t1/2 after incubation with human hepatocytes; format: in vitro ADME; conditions: male; cryopreserved human hepatocytes in suspension, 10 nM compound, 37° C., sampled at 0.5, 1 and 3 h, LC-MS/MS
Procedure: (§1) The half-life of a compound as a result of contact with human hepatocytes holds as a reliable indication of metabolic stability. As it is well known that the absorption of this class of steroids is high, this assay provides an in vitro model for oral activity in humans.
(§2) Hepatocytes collected from healthy young (25-45 year) male organ donors were cryo preserved in liquid nitrogen and kept there until use. They were thawed at 37° C. in a waterbath, placed immediately on ice, washed twice in one volume of cold (4° C.) incubation medium [William's medium E (without phenol red) with Glutamax I®, gentamicin 50 μg/ml, insulin 1 μM, hydrocortisone hemisuccinate 10 μM, fetal calf serum 0% (v/v)], counted and the viability checked by Trypan blue exclusion. Cells were incubated as suspensions in 12-wells (non-coated) plates at a nominal density of 0.5×10^6 cells/well in 1.5 ml medium at 37° C. with an air/O2/CO2 mixture (55/40/5). The plates were set on an orbital shaker at approximately 10 rpm.
(§3) The hepatocytes were incubated with 10 nM final concentration of the compound to be tested. The incubations were stopped after 0.5, 1 and 3 h by pipetting the whole incubation mixture into a glass tube and adding one volume of acetone on ice. The acetone was dried under a nitrogen flow at room temperature, the volume adjusted to 1.5 ml and the tubes were centrifuged at 4° C. at 10.000×g for 30 min. The de-proteinized supernatants were collected for LC-MS/MS analysis.

[3] = test system: human hepatocytes; assay: t1/2 after incubation with human hepatocytes; format: in vitro ADME; conditions: cryopreserved human hepatocytes in suspension, 10 nM compound, 37° C., sampled at 0.5, 1 and 3 h, LC-MS/MS
Procedure: as §1, §2, §3

| Structure (SMILES) | melting point [°C] | ED50 [1] [mg/kg] | half-life at 10 nM [2] [min] | other results |
| --- | --- | --- | --- | --- |
| CC[C@@H]1CC2=CCCC[C@@H]2[C@H]2CC[C@]3(C)[C@@H](O)CC[C@H]3[C@H]12 | 155 to 157 |  |  |  |
| CC[C@@H]1CC2=C(CC[C@@H](O)C2)[C@H]2CC[C@]3(C)[C@@H](O)CC[C@H]3[C@H]12 | 98 to 100 |  |  |  |
| C=C[C@@H]1CC2=C/C(=N/O)CC[C@@H]2[C@H]2CC[C@]3(C)[C@@H](O)CC[C@H]3[C@@H]21 | 206 to 224 |  |  |  |
| CC[C@@H]1CC2=CC(=O)CC[C@@H]2[C@H]2CC[C@]3(C)[C@@H](O)CC[C@H]3[C@H]12 [Example 1, (7α,17β)-7-Ethyl-17-hydroxyestr-4-en-3-one] | 142.5 to 143.5 | 2.5 | 48 |  |
| C=C[C@@H]1CC2=CC(=O)CC[C@@H]2[C@H]2CC[C@]3(C)[C@@H](O)CC[C@H]3[C@@H]21 [Example 4, (7α,17β)-7-Ethenyl-17-hydroxyestr-4-en-3-one] |  | 2.5 |  |  |
| C/C=C/[C@@H]1CC2=CC(=O)CC[C@@H]2[C@H]2CC[C@]3(C)[C@@H](O)CC[C@H]3[C@@H]21 [Example 6a, [7α(E),17β]-17-Hydroxy-7-(1-propenyl)estr-4-en-3-one] |  |  |  | t1/2 after incubation with human hepatocytes [3]: 30 min |
| C[C@]12CC[C@H]3[C@@H]([C@H](C4CC4)CC4=CC(=O)CC[C@@H]43)[C@@H]1CC[C@@H]2O [Example 10, (7α,17β)-7-Cyclopropyl-17-hydroxyestr-4-en-3-one] |  |  | 30 |  |
| CC[C@@H]1CC2=CC(=O)CC[C@@H]2[C@@H]2[C@@H]1[C@@H]1CC[C@H](O)[C@@]1(C)C[C@@H]2C [Example 11, (7α,11β,17β)-7-Ethyl-17-hydroxy-11-methylestr-4-en-3-one] |  | 5 |  |  |
| C=C[C@@H]1CC2=CC(=O)CC[C@@H]2[C@@H]2[C@@H]1[C@@H]1CC[C@H](O)[C@@]1(C)C[C@@H]2C [Example 12, (7α,11β,17β)-7-Ethenyl-17-hydroxy-11-methylestr-4-en-3-one] |  | 5 |  |  |
| CC[C@@H]1CC2=CC(=O)CC[C@@H]2[C@H]2CC[C@]3(CC)[C@@H](O)CC[C@H]3[C@H]12 [Example 13, (7α,17β)-7,13-Diethyl-17-hydroxygon-4-en-3-one] |  |  | 48 |  |
| C=C[C@@H]1CC2=CC(=O)CC[C@@H]2[C@H]2CC[C@]3(CC)[C@@H](O)CC[C@H]3[C@@H]21 [Example 14, (7α,17β)-7-Ethenyl-13-ethyl-17-hydroxygon-4-en-3-one] |  |  | 20 |  |
| C[C@@H]1CC2=CC(=O)CC[C@@H]2[C@H]2CC[C@]3(C)[C@@H](O)CC[C@H]3[C@@H]21 [MENT, 7α-methyl-19-nortestosterone, reference compound] |  |  |  | ED50 (po) required to suppress serum LH for 50% (±10%) [1]: 10 mg/kg; t1/2 after incubation with human hepatocytes [3]: 20 min |
